Experimental data: ChEMBL document CHEMBL6127079, “Design and synthesis of spiro[pyrrolidine-3,3'-quinoline]-2,2'-dione derivatives as novel antifungal agents targeting chitin synthase” (Eur J Med Chem, 2024)
Values after ≈ are worked out from the molar mass of the structure shown.

Assays:
Candida tropicalis = experiment: Inhibition of chitin synthase extracted from Candida tropicalis ATCC 750 using UDP-GlcNAc as substrate assessed as inhibition rate at 300 ug/ml by TMB based microplate analyzer relative to control; settings: dose 300.0 µg/ml
[1] = Inhibition of chitin synthase extracted from Candida tropicalis ATCC 750 using UDP-GlcNAc as substrate assessed as inhibition rate by TMB based microplate analyzer relative to control
Candida albicans [2] = experiment: Antifungal activity against Candida albicans ATCC 76615 assessed as inhibition of growth incubated for 24 hrs by two-fold serial dilution method; type: functional
Aspergillus flavus [3] = experiment: Antifungal activity against Aspergillus flavus ATCC 16870 assessed as inhibition of growth incubated for 24 hrs by two-fold serial dilution method; type: functional
Aspergillus fumigatus [4] = experiment: Antifungal activity against Aspergillus fumigatus GIMCC 3.19 assessed as inhibition of growth incubated for 24 hrs by two-fold serial dilution method; type: functional
Cryptococcus neoformans [5] = experiment: Antifungal activity against Cryptococcus neoformans ATCC 32719 assessed as inhibition of growth incubated for 24 hrs by two-fold serial dilution method; type: functional
Candida albicans [6] = experiment: Antifungal activity against drug-resistant Candida albicans ATCC 76615 assessed as inhibition of cell wall synthesis in presence of sorbitol incubated for 24 hrs; type: functional
Aspergillus flavus [7] = experiment: Antifungal activity against drug-resistant Aspergillus flavus ATCC 16870 assessed as inhibition of cell wall synthesis in presence of sorbitol incubated for 24 hrs; type: functional
Aspergillus fumigatus [8] = experiment: Antifungal activity against drug-resistant Aspergillus fumigatus GIMCC 3.19 assessed as inhibition of cell wall synthesis in presence of sorbitol incubated for 24 hrs; type: functional
Cryptococcus neoformans [9] = experiment: Antifungal activity against drug-resistant Cryptococcus neoformans ATCC 32719 assessed as inhibition of cell wall synthesis in presence of sorbitol incubated for 24 hrs; type: functional
Candida albicans [10] = experiment: Antifungal activity against fluconazole-resistant Candida albicans ATCC 76615 assessed as inhibition of fungal growth incubated for 24 to 72 hrs; type: functional; settings: time 24-72 hrs
Aspergillus flavus [11] = experiment: Antifungal activity against fluconazole-resistant Aspergillus flavus ATCC 16870 assessed as inhibition of fungal growth incubated for 24 to 72 hrs; type: functional; settings: time 24-72 hrs
Aspergillus fumigatus [12] = experiment: Antifungal activity against fluconazole-resistant Aspergillus fumigatus GIMCC 3.19 assessed as inhibition of fungal growth incubated for 24 to 72 hrs; type: functional; settings: time 24-72 hrs
Cryptococcus neoformans [13] = experiment: Antifungal activity against fluconazole-resistant Cryptococcus neoformans ATCC 32719 assessed as inhibition of fungal growth incubated for 24 to 72 hrs; type: functional; settings: time 24-72 hrs
Candida albicans [14] = experiment: Antifungal activity against micafungin-resistant Candida albicans ATCC 76615 assessed as inhibition of fungal growth incubated for 24 to 72 hrs; type: functional; settings: time 24-72 hrs
Candida albicans [15] = experiment: Antifungal activity against Candida albicans ATCC 76615 incubated for 24 hrs by half broth dilution based checkerboard method; type: functional
Aspergillus flavus [16] = experiment: Antifungal activity against Aspergillus flavus ATCC 16870 incubated for 24 hrs by half broth dilution based checkerboard method; type: functional
Aspergillus fumigatus [17] = experiment: Antifungal activity against Aspergillus fumigatus GIMCC 3.19 incubated for 24 hrs by half broth dilution based checkerboard method; type: functional
Cryptococcus neoformans [18] = experiment: Antifungal activity against Cryptococcus neoformans ATCC 32719 incubated for 24 hrs by half broth dilution based checkerboard method; type: functional
Candida albicans [19] = experiment: Antifungal activity against Candida albicans ATCC 76615 assessed as fluconazole MIC incubated for 24 hrs in presence of fluconazole by half broth dilution based checkerboard method; type: functional
Aspergillus flavus [20] = experiment: Antifungal activity against Aspergillus flavus ATCC 16870 assessed as fluconazole MIC incubated for 24 hrs in presence of fluconazole by half broth dilution based checkerboard method; type: functional
Aspergillus fumigatus [21] = experiment: Antifungal activity against Aspergillus fumigatus GIMCC 3.19 assessed as fluconazole MIC incubated for 24 hrs in presence of fluconazole by half broth dilution based checkerboard method; type: functional
Cryptococcus neoformans [22] = experiment: Antifungal activity against Cryptococcus neoformans ATCC 32719 assessed as fluconazole MIC incubated for 24 hrs in presence of fluconazole by half broth dilution based checkerboard method; type: functional
Aspergillus fumigatus [23] = experiment: Synergistic antifungal activity against Aspergillus fumigatus GIMCC 3.19 assessed as fractional inhibitory concentration index in presence of fluconazole incubated for 24 hrs by half broth dilution based checkerboard method; type: functional
Candida albicans [24] = experiment: Synergistic antifungal activity against Candida albicans ATCC 76615 assessed as fractional inhibitory concentration index in presence of fluconazole incubated for 24 hrs by half broth dilution based checkerboard method; type: functional
Aspergillus flavus [25] = experiment: Synergistic antifungal activity against Aspergillus flavus ATCC 16870 assessed as fractional inhibitory concentration index in presence of fluconazole incubated for 24 hrs by half broth dilution based checkerboard method; type: functional
Cryptococcus neoformans [26] = experiment: Synergistic antifungal activity against Cryptococcus neoformans ATCC 32719 assessed as fractional inhibitory concentration index in presence of fluconazole incubated for 24 hrs by half broth dilution based checkerboard method; type: functional
Candida albicans [27] = experiment: Antifungal activity against Candida albicans ATCC 76615 assessed as Polyoxin B MIC incubated for 24 hrs in presence of fluconazole by half broth dilution based checkerboard method; type: functional
Aspergillus flavus [28] = experiment: Antifungal activity against Aspergillus flavus ATCC 16870 assessed as Polyoxin B MIC incubated for 24 hrs in presence of fluconazole by half broth dilution based checkerboard method; type: functional
Aspergillus fumigatus [29] = experiment: Antifungal activity against Aspergillus fumigatus GIMCC 3.19 assessed as Polyoxin B MIC incubated for 24 hrs in presence of fluconazole by half broth dilution based checkerboard method; type: functional
Cryptococcus neoformans [30] = experiment: Antifungal activity against Cryptococcus neoformans ATCC 32719 assessed as Polyoxin B MIC incubated for 24 hrs in presence of fluconazole by half broth dilution based checkerboard method; type: functional
Candida albicans [31] = experiment: Synergistic antifungal activity against Candida albicans ATCC 76615 assessed as fractional inhibitory concentration index in presence of Polyoxin B incubated for 24 hrs by half broth dilution based checkerboard method; type: functional
Aspergillus flavus [32] = experiment: Synergistic antifungal activity against Aspergillus flavus ATCC 16870 assessed as fractional inhibitory concentration index in presence of Polyoxin B incubated for 24 hrs by half broth dilution based checkerboard method; type: functional
Aspergillus fumigatus [33] = experiment: Synergistic antifungal activity against Aspergillus fumigatus GIMCC 3.19 assessed as fractional inhibitory concentration index in presence of Polyoxin B incubated for 24 hrs by half broth dilution based checkerboard method; type: functional
Cryptococcus neoformans [34] = experiment: Synergistic antifungal activity against Cryptococcus neoformans ATCC 32719 assessed as fractional inhibitory concentration index in presence of Polyoxin B incubated for 24 hrs by half broth dilution based checkerboard method; type: functional

Row | SMILES | inhibition (Candida tropicalis) [%] | IC50 [1] [µM] | MIC (Candida albicans [2]) [µg/mL] | MIC (Aspergillus flavus [3]) [µg/mL] | MIC (Aspergillus fumigatus [4]) [µg/mL] | MIC (Cryptococcus neoformans [5]) [µg/mL] | MIC (Candida albicans [6]) [µg/mL] | MIC (Aspergillus flavus [7]) [µg/mL] | MIC (Aspergillus fumigatus [8]) [µg/mL] | MIC (Cryptococcus neoformans [9]) [µg/mL] | MIC (Candida albicans [10]) [µg/mL] | MIC (Aspergillus flavus [11]) [µg/mL] | MIC (Aspergillus fumigatus [12]) [µg/mL] | MIC (Cryptococcus neoformans [13]) [µg/mL] | MIC (Candida albicans [14]) [µg/mL] | MIC (Candida albicans [15]) [µg/mL] | MIC (Aspergillus flavus [16]) [µg/mL] | MIC (Aspergillus fumigatus [17]) [µg/mL] | MIC (Cryptococcus neoformans [18]) [µg/mL] | MIC (Candida albicans [19]) [µg/mL] | other results
1 | O=C(CN1CCC(C(=O)Nc2cccc(Br)c2)CC1)Nc1ccc2c(c1)NC(=O)C1(CCNC1=O)C2 (racemic) | 80.6 | 101 | 16 (≈ 28.9 µM) | 32 (≈ 57.7 µM) | 32 (≈ 57.7 µM) | 8 (≈ 14.4 µM) | 128 | 256 | 256 | 256 | 32 (≈ 57.7 µM) | 32 (≈ 57.7 µM) | 64 (≈ 115 µM) | 32 (≈ 57.7 µM) | 64 (≈ 115 µM) | 16 | 32 | 32 | 8 | 1 | MIC (Aspergillus flavus [20]): 1.25 µg/mL; MIC (Aspergillus fumigatus [21]): 1 µg/mL; MIC (Cryptococcus neoformans [22]): 0.75 µg/mL; fractional inhibitory concentration index (FICI) (Aspergillus fumigatus [23]): 0.75; fractional inhibitory concentration index (FICI) (Candida albicans [24]): 1.25; fractional inhibitory concentration index (FICI) (Aspergillus flavus [25]): 0.625; fractional inhibitory concentration index (FICI) (Cryptococcus neoformans [26]): 1.5; MIC (Candida albicans [27]): 16 µg/mL; MIC (Aspergillus flavus [28]): 32 µg/mL; MIC (Aspergillus fumigatus [29]): 32 µg/mL; MIC (Cryptococcus neoformans [30]): 8 µg/mL; fractional inhibitory concentration index (FICI) (Candida albicans [31]): 1.5; fractional inhibitory concentration index (FICI) (Aspergillus flavus [32]): 1.25; fractional inhibitory concentration index (FICI) (Aspergillus fumigatus [33]): 0.75; fractional inhibitory concentration index (FICI) (Cryptococcus neoformans [34]): 1
2 | O=C(/C=C/C(=O)Nc1cccc2ccccc12)Nc1ccc2c(c1)NC(=O)C1(CCNC1=O)C2 (racemic) | 79.5 | 131 | 16 (≈ 35.2 µM) | 8 (≈ 17.6 µM) | 8 (≈ 17.6 µM) | 8 (≈ 17.6 µM) | 256 | 64 | 128 | 128 | 32 (≈ 70.4 µM) | 32 (≈ 70.4 µM) | 64 (≈ 141 µM) | 32 (≈ 70.4 µM) | 32 (≈ 70.4 µM) | 4 | 2 | 2 | 2 | 8 | MIC (Aspergillus flavus [20]): 2 µg/mL; MIC (Aspergillus fumigatus [21]): 2 µg/mL; MIC (Cryptococcus neoformans [22]): 2 µg/mL; fractional inhibitory concentration index (FICI) (Aspergillus fumigatus [23]): 1; fractional inhibitory concentration index (FICI) (Candida albicans [24]): 1.125; fractional inhibitory concentration index (FICI) (Aspergillus flavus [25]): 0.75; fractional inhibitory concentration index (FICI) (Cryptococcus neoformans [26]): 0.5; MIC (Candida albicans [27]): 8 µg/mL; MIC (Aspergillus flavus [28]): 2 µg/mL; MIC (Aspergillus fumigatus [29]): 2 µg/mL; MIC (Cryptococcus neoformans [30]): 2 µg/mL; fractional inhibitory concentration index (FICI) (Candida albicans [31]): 1.25; fractional inhibitory concentration index (FICI) (Aspergillus flavus [32]): 0.75; fractional inhibitory concentration index (FICI) (Aspergillus fumigatus [33]): 1; fractional inhibitory concentration index (FICI) (Cryptococcus neoformans [34]): 0.5
3 | Cc1ccc(NC(=O)/C=C/C(=O)Nc2ccc3c(c2)NC(=O)C2(CCNC2=O)C3)cc1 (racemic) | 71.4 | 201 | 16 (≈ 38.2 µM) | 8 (≈ 19.1 µM) | 16 (≈ 38.2 µM) | 32 (≈ 76.5 µM) | 128 | 64 | 128 | 256 | 64 (≈ 153 µM) | 32 (≈ 76.5 µM) | 32 (≈ 76.5 µM) | 64 (≈ 153 µM) | 64 (≈ 153 µM) | 8 | 4 | 8 | 16 | 4 | MIC (Aspergillus flavus [20]): 4 µg/mL; MIC (Aspergillus fumigatus [21]): 4 µg/mL; MIC (Cryptococcus neoformans [22]): 8 µg/mL; fractional inhibitory concentration index (FICI) (Aspergillus fumigatus [23]): 1.5; fractional inhibitory concentration index (FICI) (Candida albicans [24]): 1; fractional inhibitory concentration index (FICI) (Aspergillus flavus [25]): 2; fractional inhibitory concentration index (FICI) (Cryptococcus neoformans [26]): 1.5; MIC (Candida albicans [27]): 8 µg/mL; MIC (Aspergillus flavus [28]): 4 µg/mL; MIC (Aspergillus fumigatus [29]): 16 µg/mL; MIC (Cryptococcus neoformans [30]): 16 µg/mL; fractional inhibitory concentration index (FICI) (Candida albicans [31]): 1; fractional inhibitory concentration index (FICI) (Aspergillus flavus [32]): 2; fractional inhibitory concentration index (FICI) (Aspergillus fumigatus [33]): 1.5; fractional inhibitory concentration index (FICI) (Cryptococcus neoformans [34]): 1.5
